The values that follow come from patent publication US7119073B2, “Peptides and their use as inhibitors of hepatitis C virus ns3 protease” (Istituto Di Ricerche Di Biologia Molecolare P. Angeletti SpA, priority 2001, dated 2006).

pIC50: −log10 of the molar value. Like-named read-outs stand apart in the source and are kept apart here. Where a SMILES comes first, the peptide text is derived from it. [ ]: non-standard residue; d: D form. The star is where a group is joined. Dip = N[C@H](C(=O)O)C(c1ccccc1)c1ccccc1; Abu(4,4-F2) = N[C@@H](CC(F)F)C(=O)O; Cha = N[C@@H](CC1CCCCC1)C(=O)O; X1 = O=C(O)c1ccc(CCN*)cc1 Bounds are passed on as bounds.

The target of assay [1] is T1, full length NS3 protein noncovalently complexed with the full-length NS4A cofactor protein (NS3/NS4A complex) (Hepatitis C virus genotype 1b, UniProt P26663).
T1 construct: full length NS3 protein spanning residues 1027–1657 of the HCV polyprotein
T1 sequence (P26663 1027-1657): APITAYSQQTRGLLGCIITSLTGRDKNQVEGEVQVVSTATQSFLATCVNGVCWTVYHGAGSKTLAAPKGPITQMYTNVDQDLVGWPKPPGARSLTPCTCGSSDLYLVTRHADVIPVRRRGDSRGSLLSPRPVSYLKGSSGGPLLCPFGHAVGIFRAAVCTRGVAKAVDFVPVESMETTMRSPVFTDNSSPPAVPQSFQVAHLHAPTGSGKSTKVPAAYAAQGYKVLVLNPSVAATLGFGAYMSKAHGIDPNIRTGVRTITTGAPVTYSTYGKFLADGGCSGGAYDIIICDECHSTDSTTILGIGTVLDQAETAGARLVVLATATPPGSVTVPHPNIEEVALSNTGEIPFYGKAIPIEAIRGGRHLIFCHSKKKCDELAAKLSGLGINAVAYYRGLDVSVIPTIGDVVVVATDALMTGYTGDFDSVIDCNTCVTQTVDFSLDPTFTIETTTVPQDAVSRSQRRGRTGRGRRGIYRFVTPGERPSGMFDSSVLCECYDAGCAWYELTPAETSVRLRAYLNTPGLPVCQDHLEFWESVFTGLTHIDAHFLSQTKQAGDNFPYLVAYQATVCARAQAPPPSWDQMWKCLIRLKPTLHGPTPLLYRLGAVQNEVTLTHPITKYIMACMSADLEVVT
T1 sequence (P26663 1658-1711): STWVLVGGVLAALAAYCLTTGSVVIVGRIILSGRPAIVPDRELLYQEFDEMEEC
Briefly: Full-length NS3-NS4A heterodimer protein assay (Assay A). It counts as biochemical, hepatitis C virus (HCV). Here is the method:
Full-Length NS3-NS4A Heterodimer Protein Assay (Assay A)
(Gallinari, P., Paolini, C., Brennan, D., Nardi, C., Steinkühler, C. and De Francesco, R. Modulation of hepatitis C virus NS3 protease and helicase activities through the interaction with NS4A. Biochemistry 38, 5620–5632, 1999)
In this assay the full length NS3 protein spanning residues 1027–1657 of the HCV polyprotein, noncovalently complexed with the full-length NS4A cofactor protein (residues 1658–1711) was used. Assays were performed in 60 μl of a buffer containing 50 mM Hepes pH 7.5, 0.15 M NaCl, 0.1% (v/v) Triton X-100, 15% (v/v) glycerol, 10 mM DTT, 2 nM NS3/NS4A complex. To this assay mix 10 μM (final concentration) of a peptide substrate corresponding to the NS5AB cleavage site and having the sequence of the NS5A-NS5B peptide, were added. Incubation times at 23° C. were adjusted to obtain <10% conversion. Reactions were stopped by the addition of 40 μl of 1% TFA. Cleavage was determined by HPLC using a Merck-Hitachi chromatograph equipped with an autosampler. 80 μl samples were injected on a Lichrospher C18 reversed phase cartridge column (4×74 mm, 5 μm, Merck) and fragments were separated using a 10–40% acetonitrile gradient at 5%/min using a flow rate of 2.5 ml/min. Peak detection was done by monitoring both the absorbance at 220 nm and tryptophan fluorescence (λex=280 nm, λem=350 nm). Cleavage products were quantitated by integration of chromatograms with respect to appropriate standards. Kinetic parameters were calculated from nonlinear least-squares fit of initial rates as a function of substrate concentration with the help of a Kaleidagraph software, assuming Michaelis-Menten kinetics.
Ki values of peptide inhibitors were calculated from substrate titration experiments performed in the presence of increasing amounts of inhibitor. Experimental data sets were simultaneously fitted to eg.1 using a multicurve fit macro with the help of a Sigmaplot software: V=(VmaxS)/(Km([…])+S); (eq.1) Alternatively, Ki values were derived from IC50 values, calculated using a four-parameter logistic function, according to eq.2: IC50=(1+S/Km)Ki (eq.2)

Assay [2] concerns the target T2, NS3 protease domain complexed to a modified form of the NS4A peptide (Pep4AK) (Hepatitis C virus genotype 1b, UniProt P26663).
T2 construct: NS3 protease domain (residues 1027–1206 of the HCV polyprotein)
The assay is described as follows: HCV NS3 protease domain/NS4A cofactor peptide assay (Assay B). In kind it is biochemical.

[3] abbreviates: NS3 protease domain/NS4A cofactor peptide assay, read-out: Assay B (IC50 class).
[4] abbreviates: Table 1, NS3 protease domain/Pep4AK, 4AB peptide substrate, read-out: Assay B.
Setting [5] is: Table 5, full-length NS3/NS4A, read-out: AssayA.

T2 sequence (P26663 1027-1206, other chains not shown): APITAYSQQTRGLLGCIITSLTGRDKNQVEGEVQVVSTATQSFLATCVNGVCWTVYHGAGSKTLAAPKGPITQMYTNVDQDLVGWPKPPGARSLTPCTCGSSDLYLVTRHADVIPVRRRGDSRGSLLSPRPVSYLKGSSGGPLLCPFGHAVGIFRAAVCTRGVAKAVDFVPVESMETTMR

As for `CC(C)C[C@H](NC(=O)C1(Cc2ccsc2C(=O)O)Cc2ccccc2N1)C(=O)N[C@@H](CC(F)F)C(=O)NCCc1ccc(C(=O)O)cc1Cl` (single isomer, unassigned) [Compound 705], the pIC50 is more than 4.00 in assay [1] and more than 5.00 in assay [2] (setting [3]). In the same order, the values of `CC(C)C[C@H](NC(=O)C1(Cc2ccsc2C(=O)O)Cc2ccccc2N1)C(=O)N[C@@H](CC(F)F)C(=O)NCCc1cccc(/C=C/C(=O)O)c1` (single isomer, unassigned) [Compound 706] are more than 4.00 and more than 5.00. On the same counts, the results for `CC(C)C[C@H](NC(=O)C1(Cc2ccsc2C(=O)O)Cc2ccccc2N1)C(=O)N[C@@H](CC(F)F)C(=O)NCCc1c(F)cc(C(=O)O)cc1F` (single isomer, unassigned) [Compound 708b] are more than 4.00 and more than 5.00. In the same order, the values of `CC(C)C[C@H](NC(=O)C1(Cc2ccc(C(=O)O)s2)CCc2ccccc2N1)C(=O)N[C@@H](CC(F)F)C(=O)NCCc1ccc(C(=O)O)cc1Cl` (single isomer, unassigned) [Compound 711b] are more than 4.00 and more than 5.00. Consider `CC(C)C[C@H](NC(=O)C1(Cc2cccc(C(=O)O)c2)CCc2ccccc2N1)C(=O)N[C@@H](CC(F)F)C(=O)NCCc1ccc(C(=O)O)cc1Cl` (single isomer, unassigned) [Compound 712b], for which the pIC50 is more than 4.00 in assay [1] and more than 5.00 in assay [2] (setting [3]). As for `CC(C)CC(NC(=O)C(CCC(=O)O)NC(=O)OC(C)(C)C)C(=O)NC(CS)C(=O)NCCc1ccccc1Cl` (stereo not drawn) [Compound 114], the results for the pIC50 in assay [1] and in assay [2] (setting [4]) were more than 4.00 and more than 5.00, respectively.

With `CC(C)CC(NC(=O)C(CCC(=O)O)NC(=O)OC(C)(C)C)C(=O)NC(CC(F)F)C(=O)NCCc1ccccc1Cl` (stereo not drawn) [Compound 115], the pIC50 is more than 4.00 in assay [1] and more than 5.00 in assay [2] (setting [4]). On the same counts, the results for `CC(C)COC(=O)NC(CCC(=O)O)C(=O)NC(CC(C)C)C(=O)NC(CS)C(=O)NCCc1cccc(C(=O)O)c1` (stereo not drawn) [Compound 133] are more than 4.00 and more than 5.00. Turning to `CC(C)COC(=O)NC(CCC(=O)O)C(=O)NC(CC(C)C)C(=O)NC(CS)C(=O)NCCc1ccc(C(=O)O)cc1` (stereo not drawn) [Compound 151], the pIC50 in assay [1] is more than 4.00; in assay [2] (setting [4]), more than 5.00. In the same order, the values of `CC(C)COC(=O)NC(CCC(=O)O)C(=O)NC(CC(C)C)C(=O)NC(CS)C(=O)NCCc1ccc(CC(=O)O)cc1` (stereo not drawn) [Compound 154] are more than 4.00 and more than 5.00. Regarding `CC(C)COC(=O)NC(CCC(=O)O)C(=O)NC(CC(C)C)C(=O)NC(CS)C(=O)NCCc1ccc(CCC(=O)O)cc1` (stereo not drawn) [Compound 156], the pIC50 in assay [1] is more than 4.00; in assay [2] (setting [4]), more than 5.00.

As to `CC(C)COC(=O)NC(CCC(=O)O)C(=O)NC(CC(C)C)C(=O)NC(CS)C(=O)NCCc1c(Cl)cccc1Cl` (stereo not drawn) [Compound 164], the pIC50 in assay [1] was more than 4.00; in assay [2] (setting [4]), more than 5.00.

Take `COc1ccc(Br)cc1CCNC(=O)C(CS)NC(=O)C(CC(C)C)NC(=O)C(CCC(=O)O)NC(=O)OCC(C)C` (stereo not drawn) [Compound 173]: the pIC50 is more than 4.00 in assay [1] and more than 5.00 in assay [2] (setting [4]). With `COC(=O)c1ccc(CCNC(=O)[C@H](CS)NC(=O)[C@H](CC(C)C)NC(=O)[C@H](CCC(=O)O)NC(=O)OCC(C)C)c(Cl)c1` [Compound 177], the pIC50 in assay [1] was more than 4.00; in assay [2] (setting [4]), more than 5.00. In the same order, the values of `CC(C)COC(=O)N[C@@H](CCC(=O)O)C(=O)N[C@@H](CC(C)C)C(=O)N[C@@H](CS)C(=O)NCCc1ccc(C(=O)O)cc1Cl` [Compound 178] are more than 5.00 and more than 6.00. For `CC(C)COC(=O)NC(CCC(=O)O)C(=O)NC(CC(C)C)C(=O)NC(CC(F)F)C(=O)NCCc1ccc(C(=O)O)cc1Cl` (stereo not drawn) [Compound 180], the pIC50 in assay [1] (Table 1, full-length NS3/NS4A, NS5A-NS5B peptide substrate, read-out: Assay A) is more than 5.00; in assay [2] (Assay B, Table 1, NS3 protease domain/Pep4AK, 4AB peptide substrate), more than 6.00. `CC(C)C[C@H](NC(=O)[C@H](CCC(=O)O)NS(=O)(=O)c1cccc2ccccc12)C(=O)N[C@@H](CS)C(=O)NCCc1ccccc1Cl` [Compound 252]: the pIC50 in assay [1] is more than 5.00; in assay [2] (Assay B, Table 2, NS3 protease domain/Pep4AK) it was more than 5.00. With `CC(=O)N[C@@H](CC(=O)O)C(=O)N[C@@H](CCC(=O)O)C(=O)N[C@H](C(=O)N[C@@H](CCC(=O)O)C(=O)N[C@@H](CC1CCCCC1)C(=O)N[C@@H](CC(F)F)C(=O)NCCc1ccc(C(=O)O)cc1)C(c1ccccc1)c1ccccc1` [Compound 321] (Ac-DE[Dip]E[Cha][Abu(4,4-F2)]-X1), the pIC50 in assay [1] (Table 3, full-length NS3/NS4A, read-out: Assay A) is more than 6.00; in assay [2] (Assay B, Table 3, NS3 protease domain/Pep4AK), more than 6.00. `CC(C)COC(=O)N[C@H](C(=O)N1C[C@H](c2ccccc2)C[C@H]1C(=O)N[C@@H](CC(F)F)C(=O)NCCc1c(F)cc(-c2nn[nH]n2)cc1F)C(C)C` [Compound 554]: the pIC50 in assay [1] (setting [5]) was more than 6.00. For the compound `CC(C)COC(=O)N[C@H](C(=O)N1C[C@H](S(=O)(=O)C2CCCCC2)C[C@H]1C(=O)N[C@@H](CC(F)F)C(=O)NCCc1c(F)cc(-c2nn[nH]n2)cc1F)C(C)C` [Compound 556], in assay [1] (setting [5]), the pIC50 was more than 6.00. The same measure, in the same setting: under `CC(C)COC(=O)N[C@H](C(=O)N1C[C@H](C2CCCCC2)C[C@H]1C(=O)N[C@@H](CC(F)F)C(=O)NCCc1c(F)cc(C(=O)NS(C)(=O)=O)cc1F)C(C)C` [Compound 557] stands more than 6.00. Still for that read-out and setting: under `CC(C)COC(=O)N[C@H](C(=O)N1C[C@H](c2ccccc2)C[C@H]1C(=O)N[C@@H](CC(F)F)C(=O)NCCc1cccc(/C=C/C(=O)O)c1)C(C)C` [Compound 558] stands more than 5.00; under `CCOC(=O)/C=C/c1cccc(CCNC(=O)[C@H](CC(F)F)NC(=O)[C@@H]2C[C@@H](c3ccccc3)CN2C(=O)[C@@H](NC(=O)OCC(C)C)C(C)C)c1` [Compound 559], more than 4.00; under `CC(C)COC(=O)N[C@H](C(=O)N1C[C@H](c2ccccc2)C[C@H]1C(=O)N[C@@H](CC(F)F)C(=O)NCCc1cccc(/C=C/C(=O)O)c1F)C(C)C` [Compound 560], more than 6.00.

In the case of `CC(C)COC(=O)N[C@H](C(=O)N1C[C@H](c2ccccc2)C[C@H]1C(=O)N[C@@H](CC(F)F)C(=O)NCCc1cc(/C=C/C(=O)O)ccc1F)C(C)C` [Compound 561], in assay [1] (setting [5]), the pIC50 is more than 6.00. The same measure, in the same setting: as for `CC(C)COC(=O)N[C@H](C(=O)N1C[C@H](c2ccccc2)C[C@H]1C(=O)N[C@@H](CC(F)F)C(=O)NCCc1cccc(OCC(=O)O)c1)C(C)C` [Compound 562], the figure is more than 4.00; as for `CC(C)COC(=O)N[C@H](C(=O)N1C[C@H](C2CCCCC2)C[C@H]1C(=O)N[C@@H](CC(F)F)C(=O)NCCc1c(F)ccc(OCC(=O)O)c1F)C(C)C` [Compound 565], more than 6.00. For the compound `CC(C)COC(=O)N[C@H](C(=O)N1C[C@H](c2ccccc2)C[C@H]1C(=O)N[C@@H](CC(F)F)C(=O)NCCc1[nH]c2ccccc2c1CCC(=O)O)C(C)C` [Compound 572], in assay [1] (setting [5]), the pIC50 was more than 4.00. For `CC(C)COC(=O)N[C@H](C(=O)N1C[C@H](c2ccccc2)C[C@H]1C(=O)N[C@@H](CC(F)F)C(=O)NCCc1cn(CCC(=O)O)c2ccccc12)C(C)C` [Compound 573], in assay [1] (setting [5]), the pIC50 was more than 4.00.

For `CC(C)COC(=O)N[C@H](C(=O)N1C[C@H](c2ccccc2)C[C@H]1C(=O)N[C@@H](CC(F)F)C(=O)NCCc1c[nH]c2ccccc12)C(C)C` [Compound 574], the pIC50 in assay [1] (setting [5]) is more than 4.00. On the same count and under the same terms, as for `CC(C)COC(=O)N[C@@H](CCC(=O)O)C(=O)N1C[C@H](c2ccccc2)C[C@H]1C(=O)N[C@@H](CC(F)F)C(=O)NCCc1c[nH]c2ccccc12` [Compound 575], the figure is more than 4.00. Consider `COc1ccc2c(O[C@@H]3C[C@@H](C(=O)N[C@@H](CC(F)F)C(=O)NCCc4c(F)cc(C(=O)O)cc4F)N(C(=O)[C@@H](NC(=O)OC(C)(C)C)C(C)(C)C)C3)cc(-c3ccccc3)nc2c1` [Compound 576], for which the pIC50 in assay [1] (setting [5]) is more than 6.00. `CC(C)[C@H](O)C(=O)N1C[C@H](OCCCc2ccccc2)CC1C(=O)N[C@@H](CC(F)F)C(=O)NCCc1c(F)cc(C(=O)O)cc1F` (stereo partly drawn) [Compound 616]: the pIC50 in assay [1] (Table 6, full-length NS3/NS4A, read-out: Assay A) is more than 4.00.
